Experimental data taken from PubChem BioAssay AID256 (DTP/NCI, 2004).
Several values for one entry are separate records, joined by “and”; a condition that tells them apart may be missing. Equal entries are not always repeated. Inconclusive results and toxic doses are left out. Rule for the calls: active = survival T/C of 150% or more; inactive = T/C below 125% in these data.

System: CD2F1 mice, L1210 leukemia ip, survival T/C
Test: NCI In Vivo Anticancer Drug Screen. Data for tumor model L1210 Leukemia (intraperitoneal) in CD2F1 (CDF1) mice
Details: higher = longer survival
Procedure, shortened: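 Transplantable tumor in mice; compound-treated vs vehicle-treated groups. Read-out = treated/control ratio of the measured endpoint.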

[1] = endpoint: mean survival time, dose: 100.0 mg/kg/injection, schedule: Q01DX009 (ip), vehicle: saline with Tween-80
[2] = endpoint: mean survival time, dose: 200.0 mg/kg/injection, schedule: Q01DX009 (ip), vehicle: saline with Tween-80
[3] = endpoint: mean survival time, dose: 25.0 mg/kg/injection, schedule: Q01DX009 (ip), vehicle: saline
[4] = endpoint: mean survival time, dose: 50.0 mg/kg/injection, schedule: Q01DX009 (ip), vehicle: saline
[5] = endpoint: mean survival time, dose: 100.0 mg/kg/injection, schedule: Q01DX009 (ip), vehicle: saline
[6] = endpoint: mean survival time, dose: 200.0 mg/kg/injection, schedule: Q01DX009 (ip), vehicle: saline
[7] = endpoint: mean survival time, dose: 100.0 mg/kg/injection, schedule: Q04DX002 (ip), vehicle: saline with Tween-80
[8] = endpoint: mean survival time, dose: 200.0 mg/kg/injection, schedule: Q04DX002 (ip), vehicle: saline with Tween-80

Measured: T/C

CC(C)[C@]12O[C@H]1[C@@H]1O[C@]13[C@]1(O[C@H]1C[C@H]1C4=C(CC[C@@]13C)C(=O)OC4)[C@@H]2O
inactive: endpoint: mean survival time, dose: 0.8 micrograms/kg/injection, schedule: Q01DX009 (ip), vehicle: saline + alcohol 96 % of control | endpoint: mean survival time, dose: 1.6 micrograms/kg/injection, schedule: Q01DX009 (ip), vehicle: saline + alcohol 91 % of control | endpoint: mean survival time, dose: 6.3 micrograms/kg/injection, schedule: Q01DX009 (ip), vehicle: saline + alcohol 93 % of control | endpoint: mean survival time, dose: 12.5 micrograms/kg/injection, schedule: Q01DX009 (ip), vehicle: saline + alcohol 95 % of control | endpoint: mean survival time, dose: 25.0 micrograms/kg/injection, schedule: Q01DX009 (ip), vehicle: saline + alcohol 96 % of control | endpoint: mean survival time, dose: 50.0 micrograms/kg/injection, schedule: Q01DX009 (ip), vehicle: saline + alcohol 90 % of control | endpoint: mean survival time, dose: 100.0 micrograms/kg/injection, schedule: Q01DX009 (ip), vehicle: saline + alcohol 110 % of control | endpoint: median survival time, dose: 0.02 mg/kg/injection, schedule: Q03HX024 (ip), vehicle: saline + alcohol 111 % of control | endpoint: median survival time, dose: 0.03 mg/kg/injection, schedule: Q03HX024 (ip), vehicle: saline + alcohol 120 % of control | endpoint: median survival time, dose: 0.06 mg/kg/injection, schedule: Q01DX009 (ip), vehicle: saline + alcohol 104 % of control | endpoint: median survival time, dose: 0.06 mg/kg/injection, schedule: Q01DX009 (sc), vehicle: saline + alcohol 112 % of control | endpoint: median survival time, dose: 0.13 mg/kg/injection, schedule: Q01DX009 (ip), vehicle: saline + alcohol 120 % of control | endpoint: median survival time, dose: 0.13 mg/kg/injection, schedule: Q01DX009 (sc), vehicle: saline + alcohol 104 % of control | endpoint: median survival time, dose: 0.25 mg/kg/injection, schedule: Q04DX003 (ip), vehicle: saline + alcohol 112 % of control | endpoint: median survival time, dose: 0.25 mg/kg/injection, schedule: Q08DX002 (ip), vehicle: saline + alcohol 107 % of control | endpoint: median survival time, dose: 0.5 mg/kg/injection, schedule: Q01DX001 (sc), vehicle: saline + alcohol 105 % of control | endpoint: median survival time, dose: 0.5 mg/kg/injection, schedule: Q04DX003 (ip), vehicle: saline + alcohol 120 % of control | endpoint: median survival time, dose: 0.5 mg/kg/injection, schedule: Q08DX002 (ip), vehicle: saline + alcohol 115 % of control | endpoint: median survival time, dose: 1.0 mg/kg/injection, schedule: Q01DX001 (sc), vehicle: saline + alcohol 107 % of control | endpoint: median survival time, dose: 1.0 mg/kg/injection, schedule: Q04DX003 (ip), vehicle: saline + alcohol 110 % of control | endpoint: median survival time, dose: 1.0 mg/kg/injection, schedule: Q08DX002 (ip), vehicle: saline + alcohol 116 % of control

OC(c1ccccc1)(c1ccccc1)c1ccc(Cl)cc1
inactive: [1] 97 % of control | [2] 101 % of control | endpoint: mean survival time, dose: 400.0 mg/kg/injection, schedule: Q01DX009 (ip), vehicle: saline with Tween-80 101 % of control

COC1C(/C=C/C(C)=O)OC2OC(C)(C)OC21 (centres undefined)
inactive: endpoint: mean survival time, dose: 6.25 mg/kg/injection, schedule: Q01DX009 (ip), vehicle: saline 110 % of control | endpoint: mean survival time, dose: 12.5 mg/kg/injection, schedule: Q01DX009 (ip), vehicle: saline 110 % of control | [3] 95 % of control | [4] 103 % of control | [5] 109 % of control | [6] 116 % of control

C#CC1(OC(=O)Nc2ccccc2)CCCCC1
inactive: [7] 100 % of control | [8] 92 % of control

CC(=O)Nc1cccc(C)n1
inactive: endpoint: mean survival time, dose: 75.0 mg/kg/injection, schedule: Q01DX001 (ip), vehicle: saline 98 % of control | endpoint: mean survival time, dose: 150.0 mg/kg/injection, schedule: Q01DX001 (ip), vehicle: saline 98 % of control

OC1CCCC(O)C1O (centres undefined)
inactive: endpoint: mean survival time, dose: 100.0 mg/kg/injection, schedule: Q04DX003 (ip), vehicle: saline 101 % of control | endpoint: mean survival time, dose: 200.0 mg/kg/injection, schedule: Q04DX003 (ip), vehicle: saline 97 % of control | endpoint: mean survival time, dose: 400.0 mg/kg/injection, schedule: Q04DX003 (ip), vehicle: saline 101 % of control

COc1ccc(C(=O)/C(C)=C(/C)NCCC#N)c(OCc2ccccc2)c1OC
inactive: endpoint: mean survival time, dose: 12.5 mg/kg/injection, schedule: Q01DX009 (ip), vehicle: other 97 % of control | endpoint: mean survival time, dose: 25.0 mg/kg/injection, schedule: Q01DX009 (ip), vehicle: other 97 % of control | endpoint: mean survival time, dose: 50.0 mg/kg/injection, schedule: Q01DX009 (ip), vehicle: other 97 % of control | endpoint: mean survival time, dose: 100.0 mg/kg/injection, schedule: Q01DX009 (ip), vehicle: other 95 % of control | endpoint: mean survival time, dose: 200.0 mg/kg/injection, schedule: Q01DX009 (ip), vehicle: other 104 % of control

Nc1cc2c(c[n+](CCO)c3ccccc23)c2ccccc12
inactive: endpoint: mean survival time, dose: 12.5 mg/kg/injection, schedule: Q04DX003 (ip), vehicle: water 103 % of control | endpoint: mean survival time, dose: 25.0 mg/kg/injection, schedule: Q04DX003 (ip), vehicle: water 104 % of control | endpoint: mean survival time, dose: 50.0 mg/kg/injection, schedule: Q04DX003 (ip), vehicle: water 110 % of control | endpoint: mean survival time, dose: 100.0 mg/kg/injection, schedule: Q04DX003 (ip), vehicle: water 120 % of control | endpoint: mean survival time, dose: 200.0 mg/kg/injection, schedule: Q04DX003 (ip), vehicle: water 120 % of control

CNC(=O)OCc1c(COC(=O)NC)c(-c2ccc(Cl)c(Cl)c2)n2c1CCC2
inactive: endpoint: mean survival time, dose: 12.5 mg/kg/injection, schedule: Q01DX009 (ip), vehicle: Klucel (hydroxypropylcellulose) (HPC) 109 % of control | endpoint: mean survival time, dose: 25.0 mg/kg/injection, schedule: Q01DX009 (ip), vehicle: Klucel (hydroxypropylcellulose) (HPC) 110 % of control | endpoint: mean survival time, dose: 50.0 mg/kg/injection, schedule: Q01DX009 (ip), vehicle: Klucel (hydroxypropylcellulose) (HPC) 107 % of control | endpoint: mean survival time, dose: 100.0 mg/kg/injection, schedule: Q01DX009 (ip), vehicle: Klucel (hydroxypropylcellulose) (HPC) 105 % of control

NC(=S)NC(=S)Nc1ccc(Cl)cc1
inactive: endpoint: mean survival time, dose: 25.0 mg/kg/injection, schedule: Q04DX002 (ip), vehicle: saline with Tween-80 98 % of control | endpoint: mean survival time, dose: 50.0 mg/kg/injection, schedule: Q04DX002 (ip), vehicle: saline with Tween-80 98 % of control | [7] 98 % of control

CCCCNC(=S)Nc1ccccc1
inactive: endpoint: mean survival time, dose: 50.0 mg/kg/injection, schedule: Q01DX009 (ip), vehicle: saline with Tween-80 100 % of control | [1] 105 % of control | [2] 86 % of control

CC(=O)OCC(=O)[C@@]1(O)CC[C@H]2[C@@H]3CCC4=CC(=O)C=C[C@]4(C)[C@@]3(F)[C@@H](O)C[C@@]21C
inactive: endpoint: mean survival time, dose: 12.5 mg/kg/injection, schedule: Q04DX003 (ip), vehicle: saline 104 % of control | endpoint: mean survival time, dose: 25.0 mg/kg/injection, schedule: Q04DX003 (ip), vehicle: saline 104 % of control | endpoint: mean survival time, dose: 50.0 mg/kg/injection, schedule: Q04DX003 (ip), vehicle: saline 107 % of control

CC1CC(C)/C(=N/NC(N)=S)C(C(O)CC2CC(=O)NC(=O)C2)C1 (centres undefined)
inactive: [3] 94 % of control and 100 % of control | [4] 100 % of control and 102 % of control | [5] 97 % of control and 103 % of control | [6] 113 % of control and 102 % of control | endpoint: mean survival time, dose: 400.0 mg/kg/injection, schedule: Q01DX009 (ip), vehicle: saline 113 % of control and 114 % of control

CC(C)NC(=S)NC1=CCNN1c1ccccc1
inactive: [7] 100 % of control | [8] 88 % of control | endpoint: mean survival time, dose: 400.0 mg/kg/injection, schedule: Q04DX002 (ip), vehicle: saline with Tween-80 88 % of control

CN(C)CCC(=O)c1ccc([N+](=O)[O-])cc1
inactive: endpoint: mean survival time, dose: 1.25 mg/kg/injection, schedule: Q01DX009 (ip), vehicle: saline with Tween-80 102 % of control | endpoint: mean survival time, dose: 2.5 mg/kg/injection, schedule: Q01DX009 (ip), vehicle: saline with Tween-80 96 % of control | endpoint: mean survival time, dose: 5.0 mg/kg/injection, schedule: Q01DX009 (ip), vehicle: saline with Tween-80 95 % of control | endpoint: mean survival time, dose: 5.0 mg/kg/injection, schedule: Q04DX003 (ip), vehicle: saline with Tween-80 100 % of control

O=C(COc1cccc(Cl)c1)NCc1ccc(NC(=O)c2ccc(S(=O)(=O)F)cc2)cc1
inactive: endpoint: mean survival time, dose: 100.0 mg/kg/injection, schedule: Q01DX001 (ip), vehicle: saline with Tween-80 96 % of control | endpoint: mean survival time, dose: 200.0 mg/kg/injection, schedule: Q01DX001 (ip), vehicle: saline with Tween-80 91 % of control | endpoint: mean survival time, dose: 400.0 mg/kg/injection, schedule: Q01DX001 (ip), vehicle: saline with Tween-80 87 % of control

CCCCCCC[CH2][Sn]1([CH2]CCCCCCC)[O]C2C(CO)OC(n3ccc(N)nc3=O)C2[O]1 (centres undefined)
inactive: endpoint: mean survival time, dose: 12.5 mg/kg/injection, schedule: Q01DX005 (ip), vehicle: other 103 % of control | endpoint: mean survival time, dose: 25.0 mg/kg/injection, schedule: Q01DX005 (ip), vehicle: other 97 % of control | endpoint: mean survival time, dose: 50.0 mg/kg/injection, schedule: Q01DX005 (ip), vehicle: other 100 % of control | endpoint: mean survival time, dose: 100.0 mg/kg/injection, schedule: Q01DX005 (ip), vehicle: other 109 % of control
